Measurements from US20260294849A1, “METHODS FOR TREATING CORNEAL INJURIES” (National Taiwan University, priority 2023, published 2026).
“Also recorded” adds a separate entry of the source. Counter-ions that a name gives are not always drawn.

Experiments:
Type in all cases: in vivo, mice (nT/nG transgenic)
[1] = tested on: corneal endothelial cells; assay: Corneal endothelial cell density after laser ablation (confocal cell counting); details: for Corneal endothelial cell density: day 2 after laser ablation, intracameral injection, means±SEM, Control 728.5 ± 55.01, BSS 633 ± 33.7; for Protection of the corneal endothelial cells against injuries: order: Formoterol Sulfate>Formoterol PG>Formoterol BG>Formoterol>THBP>Permethrin>Fenbutrazate>Levonordefrin>Encainide>Bhilawanol A
Excerpt: (§1) nT/nG transgenic mice (Jax #023035; the Jackson Laboratory), having a Cre-reporter allele comprising a cell nuclear-targeted tandem dimerTomato (tdTomato; an orange fluorescent protein) and an enhanced green fluorescent protein (EGFP) (Prigge, Wiley et al., 2013; “Nuclear double-fluorescent reporter for in vivo and ex vivo analyses of biological transitions in mouse nuclei.”), were used in the present study for investigating the cell density and the healing process in corneal endothelium. The mice were characterized in that, prior to Cre recombination, widespread fluorescence expression of tdTomato (localized to the cell nucleus) was observed; whereas following Cre recombination, nuclear-localized green fluorescence was detected. All procedures on mice were approved by and performed in accordance with the Institutional Animal Care and Use Committees of National Taiwan University.
(§2) To eliminate the corneal endothelial cells, the multiphoton femtosecond laser was employed to induce cell ablation due to its ability to precisely control cell ablation in time and space with minimal injury made to adjacent tissues (Rompolas, Deschene et al., 2012; “Live imaging of stem cell and progeny behaviour in physiological hair-follicle regeneration.”). Once the corneal endothelial cells needed to be removed were identified, laser ablation was performed on the selected area (50 μm×50 μm) with a 880 nm laser wavelength and a 500 mW laser power in a single scan, with repeatedly adjusting the laser along the z-axis to achieve optimal results.
(§3) Following laser ablation, the aforementioned drugs were intracamerally injected to the cornea of the mice immediately using a customized needle attached to a 5 μl syringe (Hamilton). To avoid the motion, a cotton swab was used to prop the eyeball during the intracameral injection above on the peripheral region of the cornea. Each eye was slowly applied with a single dose of 0.5 μl different drugs.
The mice were anesthesia and sacrificed on day 2 after laser ablation with the indicated treatments administered (as shown in FIGS. 1-3), and their eyes were enucleated and fixed in 4% paraformaldehyde (PFA) at 4° C. overnight. After dissecting the cornea from the eyeball, the cornea was cut into a four-petal shape, placed on glass slides, mounted with a mounting medium (Vector), and immobilized by using a coverslip. All the fluorescent images were acquired by a SP8 confocal microscope (Leica), with steps set at 1 μm per z-section for a 20× objective. The cell nuclear ware manually segmented by using spot plugin in Imaris (Oxford instruments). For each sample, a circle area with a diameter of 300 μm was selected to count the cell numbers, so as to quantify the cell density in different drug treatments.
All the experimental data were performed by Prism and represented as means±SEM. The statistical significance of difference between the experimental groups was evaluated by Student's t test. P values<0.05 were considered statistically significant.
The protective effect of the present compound(s) on the corneal endothelial cells against injuries was evaluated by counting the cell number and/or the density of the corneal endothelial cells, instead of the keratocytes in corneal stroma or the other cell populations in trabecular meshwork.

[2] = tested on: corneal endothelial cells; assay: Corneal wound healing by multiphoton microscopy (intravital imaging) after laser ablation; details: intracameral injection; for Corneal wound healing, Day 2: Day 2 after laser ablation, BSS group: compromised integrity until Day 2; for Corneal wound healing, Day 1: Day 1 after laser ablation, BSS group could not seal the wound defects
Excerpt: as §1
For live image acquisition, mice were anesthetized by intramuscular injection of 50-80 mg/kg Zoletil (Virbac). The corneal surface was anesthetized with 0.4% oxybuprocaine hydrochloride (Sigma) in saline. An eye holder was used to minimize artifacts during intravital imaging, as previously described (Wu, Wang et al., 2019; “Intravital multiphoton microscopic imaging platform for ocular surface imaging.”). Intravital imaging was performed using a laser wavelength of 880 nm for tdTomato excitation and a laser power of approximately 35 mW at the sample plane to optimize the image quality without photobleaching. A water-immersion 20×/NA1.0 objective lens (Olympus) was used to focus the laser light onto the eyes, after the laser light was reflected by the main dichroic mirror (Semrock). The tdTomato signals were spectrally separated using a bandpass filter of 585/40 nm (Semrock). To prevent dryness of the ocular surface during imaging, an eye gel (Vidisic Gel, Dr. Gerhard Mann Chem-Pharm) with a refractive index of 1.338 was used as an immersion medium on the cornea. Image stacks along the z-axis with a step size of 1 μm were acquired, and the dimensions of the images acquired in this study were 512×512 pixels.
as §2, §3
The efficacy of the tested drugs in promoting the corneal wound healing was investigated by a multiphoton microscopy analysis, in which changes in the wound site following drug injection was tracked.

laser-injured cornea = assay: Corneal observation (opacity, edema, ulcer formation, ocular surface) via gross images after laser ablation and intracameral injection; details: for Ocular surface of the eye: Day 2 after laser ablation and intracameral injection, BSS group: mild inflammation and irritation; for Edema / Opacity / Ulcer formation: laser-injured cornea after treatment, single intracameral injection 0.5 μl, Day 2; for Edema: BSS group: mild edema; for Opacity: BSS group: slight opacity; for Ulcer formation: BSS group: slight ulcer formation
Excerpt: as §1, §2, §3
The test compound(s) was/were intracamerally administered to the mice following laser ablation of the cornea, and then the corneal opacity was initially evaluated via gross images of the cornea.

| Compound | Corneal endothelial cell density [1] | Protection of the corneal endothelial cells against injuries [1] | Corneal wound healing, Day 2 ([2]; 6 μM) | Ocular surface of the eye (laser-injured cornea) | Edema (laser-injured cornea) | Opacity (laser-injured cornea) | Ulcer formation (laser-injured cornea) | Corneal wound healing, Day 2 ([2]; 30 μM (238.875 ng/kg)) | Corneal wound healing, Day 1 ([2]; 6 μM) |
| --- | --- | --- | --- | --- | --- | --- | --- | --- | --- |
| COc1ccc(CC(C)NCC(OC2O[C@H](C(=O)O)[C@@H](O)[C@H](O)[C@H]2O)c2ccc(O)c(NC=O)c2)cc1 (stereo partly drawn) [Formoterol BG, Formoterol Benzyl Glucuronide] | 796 ± 24.9 cell number/the area of a circ | protected the corneal endothelial cells | promoted wound healing on Day 2 | maintained the ocular surface of the eye moist and transparent | No | No | No | – | – |
| CC1(C)C(C=C(Cl)Cl)C1C(=O)OCc1cccc(Oc2ccccc2)c1 (stereo not drawn) [Permethrin, reference compound] | 721.8 ± 12.9 cell number/the area of a circ | protected the corneal endothelial cells | promoted wound healing on Day 2 | maintained the ocular surface of the eye moist and transparent | No | No | No | – | – |
| CCCCCC/C=C\CCCCCCCc1cccc(O)c1O [Bhilawanol A] | 674.3 ± 8 cell number/the area of a circ | protected the corneal endothelial cells | – | maintained the ocular surface of the eye moist and transparent | No | No | No | promoted wound healing on Day 2 | – |
| COc1ccc(C[C@@H](C)NC[C@H](O)c2ccc(OS(=O)(=O)O)c(NC=O)c2)cc1 [Formoterol Sulfate] | 805.25 ± 22.3 cell number/the area of a circ | protected the corneal endothelial cells | promoted wound healing on Day 2 | maintained the ocular surface of the eye moist and transparent | No | No | No | – | – |
| CCC(C(=O)OCCN1CCOC(c2ccccc2)C1C)c1ccccc1 (stereo not drawn) [Fenbutrazate, reference compound] | 720.8 ± 14.9 cell number/the area of a circ | protected the corneal endothelial cells | promoted wound healing on Day 2 | maintained the ocular surface of the eye moist and transparent | No | slightly hazy spot formation; also recorded: Slight hazy | No | – | – |
| COc1ccc(C[C@@H](C)NC[C@H](O)c2ccc(O[C@@H]3O[C@H](C(=O)O)[C@@H](O)[C@H](O)[C@H]3O)c(NC=O)c2)cc1 [Formoterol PG, Formoterol Phenolic Glucuronide] | 799.5 ± 23.56 cell number/the area of a circ | protected the corneal endothelial cells | promoted wound healing on Day 2 | maintained the ocular surface of the eye moist and transparent | No | No | No | – | – |
| 2,2,4,4-Tetrahydroxybenzophenone [THBP] | 724 ± 12.8 cell number/the area of a circ | protected the corneal endothelial cells | – | maintained the ocular surface of the eye moist and transparent | No | No | No | – | accelerated wound healing and sealed the defects on Day 1 |
| COc1ccc(C(=O)Nc2ccccc2CCC2CCCCN2C)cc1 (stereo not drawn) [Encainide, reference compound] | 690 ± 8.8 cell number/the area of a circ | protected the corneal endothelial cells | promoted wound healing on Day 2 | maintained the ocular surface of the eye moist and transparent | No | No | No | – | – |
| C[C@H](N)[C@H](O)c1ccc(O)c(O)c1 [Levonordefrin, reference compound] | 710.5 ± 41.7 cell number/the area of a circ | protected the corneal endothelial cells | – | maintained the ocular surface of the eye moist and transparent | No | No | No | – | accelerated wound healing and sealed the defects on Day 1 |
